# Reference: ChEMBL document CHEMBL1201862, “PubChem BioAssay data set” (2004)
# Active and inactive are the calls of the source.
# Assays:
# [1] = target: T1, Protein skinhead-1 (Caenorhabditis elegans, UniProt P34707); type: functional
# T1 sequence (P34707 whole entry): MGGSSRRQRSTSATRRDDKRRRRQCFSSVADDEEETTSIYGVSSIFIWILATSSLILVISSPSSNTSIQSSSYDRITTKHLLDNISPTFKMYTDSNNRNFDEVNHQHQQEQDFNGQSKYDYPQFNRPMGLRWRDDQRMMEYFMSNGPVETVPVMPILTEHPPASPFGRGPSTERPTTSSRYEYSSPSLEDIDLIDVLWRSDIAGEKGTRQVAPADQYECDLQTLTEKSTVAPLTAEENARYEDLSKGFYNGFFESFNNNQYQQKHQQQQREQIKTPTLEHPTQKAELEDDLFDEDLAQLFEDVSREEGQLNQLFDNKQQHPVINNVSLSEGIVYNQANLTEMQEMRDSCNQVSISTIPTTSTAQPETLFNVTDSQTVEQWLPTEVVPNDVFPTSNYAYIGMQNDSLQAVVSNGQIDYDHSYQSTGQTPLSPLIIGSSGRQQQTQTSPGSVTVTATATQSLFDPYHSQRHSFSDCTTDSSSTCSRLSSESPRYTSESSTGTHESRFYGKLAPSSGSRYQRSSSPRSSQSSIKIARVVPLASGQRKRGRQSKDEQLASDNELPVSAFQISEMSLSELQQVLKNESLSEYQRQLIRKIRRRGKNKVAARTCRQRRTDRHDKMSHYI
# [2] = target: T2, Rac GTPase-activating protein 1 (Homo sapiens, UniProt Q9H0H5); experiment: blockers of MgcRacGAP-driven Rac1 GTP hydrolysis – biochemical, ADP Hunter fluorescence, primary and confirmatory, confirmation (AID 624330); type: functional
# T2 sequence (Q9H0H5 whole entry): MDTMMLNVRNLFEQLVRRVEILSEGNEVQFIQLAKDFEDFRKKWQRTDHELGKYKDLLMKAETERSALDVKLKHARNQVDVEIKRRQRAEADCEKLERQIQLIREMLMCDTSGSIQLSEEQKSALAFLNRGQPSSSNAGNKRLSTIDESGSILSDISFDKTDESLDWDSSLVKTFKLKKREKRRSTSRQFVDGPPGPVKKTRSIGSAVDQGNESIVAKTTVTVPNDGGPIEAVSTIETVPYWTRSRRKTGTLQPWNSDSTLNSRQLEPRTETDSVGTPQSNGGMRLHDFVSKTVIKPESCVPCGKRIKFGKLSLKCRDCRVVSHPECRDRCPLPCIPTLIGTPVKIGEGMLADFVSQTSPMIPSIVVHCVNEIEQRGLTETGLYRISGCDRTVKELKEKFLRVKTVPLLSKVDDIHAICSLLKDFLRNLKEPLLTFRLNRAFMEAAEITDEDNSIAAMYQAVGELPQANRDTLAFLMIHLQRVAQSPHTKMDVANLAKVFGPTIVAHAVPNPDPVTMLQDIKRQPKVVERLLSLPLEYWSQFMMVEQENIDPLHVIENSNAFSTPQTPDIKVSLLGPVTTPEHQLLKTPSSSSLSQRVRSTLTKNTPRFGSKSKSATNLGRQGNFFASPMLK
# [3] = system: H9c2; experiment: cells; type: functional, cell-based; details: Rattus norvegicus, H9c2, Myocardium;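 also: confirmatory concentration-response retest of ultra-high-throughput screening hits for modulation of myocardial damage; cell death induced by hydrogen peroxide oxidative stress; compound pretreatment for 60 min then peroxide exposure for 2 h; potency is for protecting the cells against peroxide damage rather than for killing them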
# [4] = system: H4; experiment: Luminescence Cell-Based Dose Response HTS to Identify Activators of 5'UTR Stem-Loop Driven Prion Protein mRNA Translation in H4 Neuroglioblastoma Cells. [Related pubchem assays: 1829 (Project Summary), 1814 (Primary HTS)]; type: functional; details: Homo sapiens
# [5] = HIV-1 AD8 envelope cell-cell fusion blockers – cherry-pick, dose response (AID 652062); type: functional, cell-based;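 also: luciferase signal from cell-cell fusion driven by HIV-1 clade B AD8 Env; potency is for inhibitors of fusion seen as a drop in luminescence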
# [6] = blockers of HIV-1 ZM109 envelope-driven cell-cell fusion – HeLa effector, CEM target cells, luciferase, cherry-pick, dose response (AID 652058); type: functional, cell-based;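 also: luciferase signal from HIV-1 Env mediated cell-cell fusion of effector and target cells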
# [7] = target: T3, Replicative DNA helicase DnaB (Mycobacterium tuberculosis, UniProt P9WMR3); experiment: DnaB intein splicing inhibitors, dose response, biochemical, cell-free fluorescence (AID 449749); type: functional
# T3 sequence (P9WMR3 whole entry): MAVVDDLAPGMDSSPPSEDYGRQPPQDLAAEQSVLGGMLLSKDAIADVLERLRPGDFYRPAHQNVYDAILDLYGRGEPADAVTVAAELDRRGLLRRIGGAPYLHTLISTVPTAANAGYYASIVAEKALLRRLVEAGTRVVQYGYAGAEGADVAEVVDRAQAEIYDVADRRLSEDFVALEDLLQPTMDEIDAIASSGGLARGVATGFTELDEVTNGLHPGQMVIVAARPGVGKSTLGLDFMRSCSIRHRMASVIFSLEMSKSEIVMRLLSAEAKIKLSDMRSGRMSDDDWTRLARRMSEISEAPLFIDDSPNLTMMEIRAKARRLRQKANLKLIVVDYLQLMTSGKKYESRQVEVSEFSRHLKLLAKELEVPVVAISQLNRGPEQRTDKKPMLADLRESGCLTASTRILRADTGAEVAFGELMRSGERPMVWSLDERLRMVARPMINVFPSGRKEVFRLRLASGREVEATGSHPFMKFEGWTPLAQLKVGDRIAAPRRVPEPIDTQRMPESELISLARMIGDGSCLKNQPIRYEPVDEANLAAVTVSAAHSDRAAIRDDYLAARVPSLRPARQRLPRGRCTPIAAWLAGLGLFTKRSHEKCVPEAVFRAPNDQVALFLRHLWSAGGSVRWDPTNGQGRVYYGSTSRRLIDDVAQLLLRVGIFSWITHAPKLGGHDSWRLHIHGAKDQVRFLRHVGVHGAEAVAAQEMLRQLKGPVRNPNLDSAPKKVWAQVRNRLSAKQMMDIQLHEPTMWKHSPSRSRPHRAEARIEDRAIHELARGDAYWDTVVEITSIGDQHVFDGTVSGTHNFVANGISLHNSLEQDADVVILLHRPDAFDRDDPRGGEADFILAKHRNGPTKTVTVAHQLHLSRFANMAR
# [8] = target: T4, Protein RecA (Mycobacterium tuberculosis, UniProt P9WHJ3); experiment: Fluorescence Cell-Free Homogeneous Dose Retest to Identify Inhibitors of RecA-Intein Splicing Activity. [Related pubchem assays (depositor defined):AID2097, AID2223, AID489010, AID492950]; type: functional
# T4 sequence (P9WHJ3 whole entry): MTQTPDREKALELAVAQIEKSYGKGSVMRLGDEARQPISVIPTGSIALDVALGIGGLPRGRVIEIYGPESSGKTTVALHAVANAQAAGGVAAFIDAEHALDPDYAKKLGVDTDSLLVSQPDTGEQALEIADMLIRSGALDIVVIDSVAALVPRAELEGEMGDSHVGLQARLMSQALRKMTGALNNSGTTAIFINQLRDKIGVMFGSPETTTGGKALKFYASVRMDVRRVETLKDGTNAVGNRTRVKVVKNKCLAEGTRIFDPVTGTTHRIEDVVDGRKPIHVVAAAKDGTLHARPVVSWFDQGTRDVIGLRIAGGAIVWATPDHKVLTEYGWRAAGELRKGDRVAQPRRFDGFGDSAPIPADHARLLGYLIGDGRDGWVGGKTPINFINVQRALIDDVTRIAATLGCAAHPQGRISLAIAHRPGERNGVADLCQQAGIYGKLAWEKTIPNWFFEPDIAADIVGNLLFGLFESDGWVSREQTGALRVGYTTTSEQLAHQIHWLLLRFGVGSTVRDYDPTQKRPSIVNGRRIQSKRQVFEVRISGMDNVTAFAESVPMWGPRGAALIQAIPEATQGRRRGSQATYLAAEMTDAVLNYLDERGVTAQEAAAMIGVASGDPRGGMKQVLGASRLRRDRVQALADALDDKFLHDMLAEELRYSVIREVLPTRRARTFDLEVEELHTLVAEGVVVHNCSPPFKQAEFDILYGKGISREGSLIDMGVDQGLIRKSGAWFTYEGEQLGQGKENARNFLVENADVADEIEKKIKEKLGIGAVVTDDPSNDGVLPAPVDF
# [9] = target: Cytochrome P450 3A4 (Homo sapiens, UniProt P08684);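 also: CYP3A4 tested as one member of a cytochrome P450 panel screen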
# Cytochrome P450 3A4, sequence (P08684 whole entry): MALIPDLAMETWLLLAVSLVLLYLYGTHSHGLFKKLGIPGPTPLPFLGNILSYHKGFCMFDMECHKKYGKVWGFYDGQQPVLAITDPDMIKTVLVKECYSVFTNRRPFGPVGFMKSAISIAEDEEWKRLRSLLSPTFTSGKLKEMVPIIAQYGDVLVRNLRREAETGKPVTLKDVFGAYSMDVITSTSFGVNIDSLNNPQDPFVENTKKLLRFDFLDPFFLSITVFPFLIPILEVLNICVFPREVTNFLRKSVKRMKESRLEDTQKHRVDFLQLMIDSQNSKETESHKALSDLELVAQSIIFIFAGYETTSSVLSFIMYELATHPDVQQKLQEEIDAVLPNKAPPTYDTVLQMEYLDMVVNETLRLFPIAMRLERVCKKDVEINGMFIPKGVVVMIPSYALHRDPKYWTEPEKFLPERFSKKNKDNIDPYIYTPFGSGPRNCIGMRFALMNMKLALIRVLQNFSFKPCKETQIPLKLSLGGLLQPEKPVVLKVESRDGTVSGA
# [10] = target: Cytochrome P450 2C9 (Homo sapiens, UniProt P11712)
# Cytochrome P450 2C9, sequence (P11712 whole entry): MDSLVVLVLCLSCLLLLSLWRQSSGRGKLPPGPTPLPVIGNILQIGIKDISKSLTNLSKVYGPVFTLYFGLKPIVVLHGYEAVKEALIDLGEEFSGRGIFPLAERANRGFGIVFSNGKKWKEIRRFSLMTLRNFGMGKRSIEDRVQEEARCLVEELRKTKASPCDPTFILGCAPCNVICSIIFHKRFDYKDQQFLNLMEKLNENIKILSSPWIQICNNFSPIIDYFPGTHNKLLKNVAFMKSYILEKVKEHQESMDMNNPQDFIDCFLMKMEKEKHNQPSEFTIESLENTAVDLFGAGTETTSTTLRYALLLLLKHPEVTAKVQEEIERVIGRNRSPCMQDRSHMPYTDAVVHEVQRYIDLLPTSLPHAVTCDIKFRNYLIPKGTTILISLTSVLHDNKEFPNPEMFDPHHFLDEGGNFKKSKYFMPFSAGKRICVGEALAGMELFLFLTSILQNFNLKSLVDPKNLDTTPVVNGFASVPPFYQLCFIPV
smiles,measurement,setting,value
Fc1ccc(-c2csc(Nc3ccccn3)n2)c(F)c1,IC50,[1],> 100 µM (inactive)
CCOC(=O)C1CCN(Cc2c[nH]nc2-c2ccccc2)CC1,IC50,[2],131 µM (active)
Oc1nnc(-c2cccs2)c2ccccc12,IC50,[3],19.4 µM (active)
COc1ccc(S(=O)(=O)N2CC(O)CC2C(=O)OCc2nc(O)c3c(C)c(C)sc3n2)cc1 (stereo unspecified),IC50,[3],31 µM (inactive)
N#C/C(=C\c1ccc(N2CCCCC2)o1)C(=O)Nc1cccc(Br)c1,EC50,[4],0.102 µM (active)
COC(=O)c1ccc(CSc2ccc3nnc(-c4cccc(F)c4)n3n2)o1,IC50,[3],> 79 µM (inactive)
CCN(CC)CCN1C(=O)C(O)=C(C(=O)c2cnn(-c3ccccc3)c2C)C1c1ccc(C)o1 (stereo unspecified),IC50,[1],> 100 µM (inactive)
CCOC(=O)C1CCCN(Cc2nc(N)nc(Nc3ccc(OC)cc3)n2)C1 (stereo unspecified),AC50,[5],27 µM (active)
same,AC50,[6],4.93 µM (active)
O=[N+]([O-])c1ccc(Oc2ccc(F)cc2)c2ccncc12,IC50,[1],> 100 µM (inactive)
same,AC50,[7],> 380 µM (inactive)
same,EC50,[8],1.4 µM (active)
COc1ccccc1-c1c(C(F)(F)F)oc2cc(OC(=O)c3cccc([N+](=O)[O-])c3C)ccc2c1=O,AC50,[9],12.6 µM (inconclusive)
same,IC50,[1],> 100 µM (inactive)
same,AC50,[10],0.447 µM (inconclusive)
CCn1c(C)c(C2=CCN(S(=O)(=O)c3ccccc3)CC2)c2ccccc21,IC50,[1],> 100 µM (inactive)
COc1ccc(NC(=O)COc2cccc3c2CCNC3=O)cc1,IC50,[3],> 79 µM (inactive)
CCCCCCOC(=O)c1ccc(OC(=O)c2cccnc2)cc1,AC50,[7],3.69 µM (active)
same,EC50,[8],3.58 µM (active)
Cc1ccc(C)c(N/C([S-])=C(/C(=O)c2ccc(OC(F)F)cc2)[n+]2ccccc2)c1,AC50,[7],36.6 µM (active)
same,EC50,[8],11.5 µM (active)
Cc1cc(C)n2c(SCc3c(C)noc3C)nnc2n1,IC50,[1],> 100 µM (inactive)
O=C(NCC(=O)N(Cc1cccs1)C(C(=O)NC1CCCCC1)c1ccncc1)c1ccco1 (stereo unspecified),IC50,[1],> 100 µM (inactive)
COc1ccc(NC2CCCN(C(=O)CSc3ccccc3)C2)cc1OC (stereo unspecified),IC50,[2],60 µM (active)
COc1ccc(NC(=O)/C(C#N)=C/c2ncc([N+](=O)[O-])n2C)c(OC)c1,AC50,[7],67.5 µM (active)
same,EC50,[8],15.6 µM (active)
CCCNCc1cc(Cl)c(OCC)c(Cl)c1,IC50,[1],> 100 µM (inactive)
c1ccc(OCc2nc(-c3cccs3)no2)cc1,IC50,[1],31.5 µM (active)
CCOc1cccc2cc(C(=O)N3CCc4ccccc43)c(=O)oc12,IC50,[1],> 100 µM (inactive)
COCCCn1c(SCC(=O)NC(C)C)nnc1-c1ccccc1,IC50,[1],> 100 µM (inactive)
Cc1[nH][nH]c(=O)c1C(c1ccc(N(C)C)c(Br)c1)c1c(C)[nH][nH]c1=O,AC50,[7],0.467 µM (active)
same,EC50,[8],0.274 µM (active)
Cn1c(=O)[nH]c(=O)c2c1nc(NCCc1ccccc1)n2CC(O)COc1ccccc1 (stereo unspecified),IC50,[3],> 79 µM (inactive)
Cc1ccc(C(=O)Nc2cccc(C(F)(F)F)c2)cc1NC(=O)c1csc(-c2ccncc2)n1,IC50,[3],> 79 µM (inactive)
O=C(c1c[nH]c(C(=O)C(Cl)(Cl)Cl)c1)c1ccccc1Br,AC50,[7],6.31 µM (active)
same,EC50,[8],6.33 µM (active)
COc1ccc2nc(O)c(CNC3CCCCC3)cc2c1,IC50,[3],46.3 µM (inactive)
Clc1ccc(-c2nnsc2SCc2ccccc2)cc1,IC50,[1],> 100 µM (inactive)
CC(C)(C)OC(=O)CNC(=O)c1[nH]cnc1C(=O)Nc1ccc(CNC(=O)OC(C)(C)C)cc1,IC50,[3],> 79 µM (inactive)
C[C@H](CO)N1C[C@H](C)[C@@H](CN(C)S(=O)(=O)c2cccs2)Oc2ccc(NC(=O)Nc3ccccc3)cc2C1=O,IC50,[3],11.9 µM (active)
COc1ccc(C=NNC(=O)c2cc(C)oc2C)cc1O,IC50,[2],107 µM (active)
Nc1nc(N)c2[nH]c(S)nc2n1,IC50,[2],163 µM (active)
Cc1cccc(NC(=O)c2[nH]cnc2C(=O)NCCCCNC(=O)c2nc[nH]c2C(=O)Nc2cccc(C)c2)c1,IC50,[3],> 79 µM (inactive)
Cc1nn(Cc2ccc(C(=O)N3CCN(C(=O)c4ccco4)CC3)o2)c(C)c1[N+](=O)[O-],IC50,[3],21.9 µM (active)
O=C(Nc1cc(C(F)(F)F)ccc1N1CCCCC1)C1=COCCO1,IC50,[1],> 100 µM (inactive)
C/C(CC(=O)Nc1cc(C)ccn1)=N\NC(=O)c1ccccc1C,AC50,[7],26.8 µM (active)
same,EC50,[8],6.24 µM (active)
CC(C)NC(=O)Nc1ccc2c(c1)C(=O)N([C@@H](C)CO)C[C@H](C)[C@H](CN(C)C(=O)Nc1ccc(F)cc1)O2,AC50,[5],58.4 µM (active)
same,AC50,[6],22.4 µM (active)
O=C(CCCCCNC(=O)c1ccccc1)N/N=C/c1ccc(O)cc1O,IC50,[2],69.9 µM (active)
O=C1CC(Nc2ccc(N3CCOCC3)cc2)C(=O)N1Cc1ccccc1 (stereo unspecified),IC50,[2],140 µM (active)
